Assay results taken from paper PMC9969764 (ChemMedChem, 2021).

How the values were obtained:
[1] = target: RET kinase (Homo sapiens, UniProt P07949); test: RET kinase biochemical assay; conditions: read-out: RET (IC50), mean of at least n = 3
[2] = target: TRKA (Homo sapiens, UniProt P04629); test: TRKA kinase biochemical assay; conditions: read-out: TRKA (IC50), mean of at least n = 3
[3] = test system: LC-2/ad cells (RET-CCDC6 fusion-driven NSCLC); test: Cell viability, RET-driven cell line; assay type: cell-based; conditions: read-out: LC-2/ad (EC50)
[4] = test system: KM-12 cells; test: Cell viability, TRKA-driven matched control; assay type: cell-based; conditions: read-out: KM-12 (EC50)
[5] = test system: A549 cells; test: Cell viability, cytotoxic control; assay type: cell-based; conditions: read-out: A549 (EC50)

Sequence of RET kinase (P07949 29-1114): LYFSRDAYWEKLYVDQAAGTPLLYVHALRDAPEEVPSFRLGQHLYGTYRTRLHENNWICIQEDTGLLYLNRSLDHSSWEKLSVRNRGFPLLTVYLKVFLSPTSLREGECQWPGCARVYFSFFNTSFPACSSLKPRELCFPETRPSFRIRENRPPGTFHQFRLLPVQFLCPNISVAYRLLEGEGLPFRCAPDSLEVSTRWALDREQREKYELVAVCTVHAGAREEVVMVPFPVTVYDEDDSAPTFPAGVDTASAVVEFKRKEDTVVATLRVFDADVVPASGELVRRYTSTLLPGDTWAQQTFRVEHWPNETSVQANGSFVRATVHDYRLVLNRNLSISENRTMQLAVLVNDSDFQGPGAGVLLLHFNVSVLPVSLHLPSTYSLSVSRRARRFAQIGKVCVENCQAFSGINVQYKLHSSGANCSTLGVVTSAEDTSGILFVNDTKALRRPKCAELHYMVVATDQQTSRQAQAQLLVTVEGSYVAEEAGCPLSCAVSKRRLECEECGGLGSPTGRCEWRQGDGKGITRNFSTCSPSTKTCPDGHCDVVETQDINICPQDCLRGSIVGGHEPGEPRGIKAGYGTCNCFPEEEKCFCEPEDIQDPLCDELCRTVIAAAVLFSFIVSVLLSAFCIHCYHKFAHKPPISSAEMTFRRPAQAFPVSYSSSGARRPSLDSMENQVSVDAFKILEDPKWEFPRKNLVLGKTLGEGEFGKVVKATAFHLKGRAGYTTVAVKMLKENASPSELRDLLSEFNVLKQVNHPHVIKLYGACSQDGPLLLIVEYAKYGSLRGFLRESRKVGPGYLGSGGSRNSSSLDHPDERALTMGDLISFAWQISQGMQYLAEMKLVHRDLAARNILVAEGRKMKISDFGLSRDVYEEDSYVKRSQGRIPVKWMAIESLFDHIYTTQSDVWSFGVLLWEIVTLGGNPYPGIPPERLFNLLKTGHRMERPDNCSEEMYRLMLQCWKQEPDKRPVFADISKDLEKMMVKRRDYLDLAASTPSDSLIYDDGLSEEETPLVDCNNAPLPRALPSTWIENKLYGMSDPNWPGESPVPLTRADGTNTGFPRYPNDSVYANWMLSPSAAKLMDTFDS
Sequence of TRKA (P04629 33-796): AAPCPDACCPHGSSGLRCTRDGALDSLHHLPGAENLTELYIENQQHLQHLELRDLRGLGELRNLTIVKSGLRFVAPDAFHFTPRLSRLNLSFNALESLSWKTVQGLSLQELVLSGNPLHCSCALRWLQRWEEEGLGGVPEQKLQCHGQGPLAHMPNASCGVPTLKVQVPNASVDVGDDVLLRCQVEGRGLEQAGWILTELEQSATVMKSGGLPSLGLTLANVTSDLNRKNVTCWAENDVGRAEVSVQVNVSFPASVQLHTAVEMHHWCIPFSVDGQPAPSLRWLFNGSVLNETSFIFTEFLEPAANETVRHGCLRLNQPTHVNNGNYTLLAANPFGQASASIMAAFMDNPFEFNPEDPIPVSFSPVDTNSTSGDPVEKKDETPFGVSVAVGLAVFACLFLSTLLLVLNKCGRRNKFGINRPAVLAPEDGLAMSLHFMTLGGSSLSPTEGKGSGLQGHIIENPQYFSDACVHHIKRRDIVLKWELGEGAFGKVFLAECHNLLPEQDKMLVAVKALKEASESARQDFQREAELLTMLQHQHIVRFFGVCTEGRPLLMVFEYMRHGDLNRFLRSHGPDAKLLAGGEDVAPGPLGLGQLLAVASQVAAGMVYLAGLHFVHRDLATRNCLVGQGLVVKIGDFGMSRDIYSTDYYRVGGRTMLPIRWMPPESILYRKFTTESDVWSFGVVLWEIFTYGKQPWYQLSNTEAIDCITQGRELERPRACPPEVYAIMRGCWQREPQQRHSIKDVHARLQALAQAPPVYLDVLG

Row | Structure (SMILES) | IC50 [1] [µM] | IC50 [2] [µM] | EC50 [3] [µM] | EC50 [4] [µM] | EC50 [5] [µM]
1 | Cn1nc(-c2ccccc2)c2c(N)ncnc21 [4a] | 6.82 ± 2.22 |  |  |  | 
2 | Nc1ncnc2[nH]ncc12 [fragment 1, pyrazoloadenine] | 9.2 | 57.1 | 1.47 | 1.73 | 3.02
